Measurements: PubChem BioAssay (NCI)
Where “and” joins values, the source holds several entries; their conditions need not be identical. Identical values can stand only once.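 Five concentrations, 48 hours, 96-well plates. GI50 = concentration required for 50% inhibition of growth. TGI denotes the concentration required for complete inhibition of growth.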

Legend:
Assay in all cases: NCI-60 cell line screen, 48 h
[1] = tested on: A549 NSCLC
[2] = tested on: COLO 205 colon
[3] = tested on: DU-145 prostate
[4] = tested on: LOX IMVI melanoma
[5] = tested on: M14 melanoma
[6] = tested on: MOLT-4 leukemia
[7] = tested on: SF-295 CNS

Compound	TGI [1]	TGI [2] [µM]	TGI [3] [µM]	TGI [4] [µM]	TGI [5] [µM]	TGI [6]	TGI [7] [µM]	GI50 [4]	GI50 [6]	GI50 [7]
c1ccc(CSC2(SCc3ccccc3)CCCCC2)cc1	> 10 µM	> 10	> 10	> 10	> 10	> 10 µM	> 10	–	–	–
COc1ccc(NC(=S)c2ccoc2C)cc1CC(=O)OC(C)C	> 100 µM	36.7	> 100	39.2	64.3	80.4 µM	> 100	–	–	–
COc1ccc(/C=C2\C[C@H]3[C@@H]4CCC5=CC(=O)CC[C@]5(C)[C@H]4CC[C@]3(C)C2=O)cc1OC	> 100 µM	9.93	> 100	> 100	> 100	44.6 µM	> 100	–	–	–
O=C(CC(Cl)=C(Cl)Cl)c1ccccc1	> 100 µM	78.9	> 100	32.1	> 100	28.6 µM	> 100	–	–	–
O=C(N/N=C/c1ccccc1)c1cccc2nc3ccccc3nc12	> 84 µM	18	> 100	> 100	> 100	> 100 µM	> 86.5	–	–	–
CCOP(=O)(OCC)OC1c2[nH]cc(C(=O)OCc3ccccc3)c2-c2cc(C(=O)OC)[nH]c2C1OC (stereo not drawn)	> 61.2 µM	> 100	89.8	> 41.4	> 100	> 100 µM	28.8	–	–	–
Cn1cc(-c2csc(-c3cn(C)c4ccccc34)n2)c2ccccc21	> 100 µM	> 100	> 100	> 100	> 100	42 µM	> 100	–	–	–
CCOC(=O)c1c(NC(=S)Nc2ccccc2)sc2c1CCOC2	> 100 µM	> 100	> 100	> 100	> 100	> 100 µM	> 100	–	–	–
COc1ccc(-c2oc3c(OC)c(OC)cc(O)c3c(=O)c2OC)cc1	> 100 µM	> 100	> 100	> 100	> 100	> 100 µM	> 100	–	–	–
COc1ccc2nc3cccc([N+](=O)[O-])c3c(NCCCO)c2c1	0.0223 µM and 0.102 µM	–	15.6	–	0.00227	0.036 µM and 0.0847 µM	–	0.0085 µM and 0.0471 µM	0.00328 µM and 0.0181 µM	0.00799 µM and 0.0319 µM
CC(=O)OC(Cc1c(O)c2c(C)cccc2oc1=O)C(C)(C)O (stereo not drawn)	> 100 µM	> 100	> 100	> 100	> 100	> 100 µM	> 100	–	–	–
CC(=O)Oc1ccc2c3c1O[C@H]1[C@H](O)CC[C@@]4(O)[C@@H](C2)N(C)CC[C@]314	> 100 µM	> 100	> 100	> 100	> 100	> 100 µM	> 100	–	–	–
CC(Cl)CC(=O)OCC1CCCN2CCCCC12 (stereo not drawn)	> 100 µM	> 100	> 100	> 100	> 100	> 100 µM	> 100	–	–	–
N#Cc1c(O)c(/C=N/c2ncccn2)c(=O)n2c1[nH]c1ccccc12	> 100 µM	> 100	–	> 100	> 100	> 100 µM	> 100	–	–	–
CC1C(C#N)(C#N)C(C#N)=C(N)C1(Cl)[N+](=O)[O-] (stereo not drawn)	54.6 µM	18.5	30.6	18.8	22.1	11.6 µM	36.1	–	–	–
O=C(NNC(=O)c1csc(NC(=S)NC2CCCCC2)n1)c1ccccc1	54.1 µM	20.1	51.3	22	35.4	44.9 µM	51.9	–	–	–
C#CC1(O)CCCCCCCCC2(CCCCCCCC1)OCCO2	26.8 µM	33.2	31.1	38.1	33.9	–	34.7	–	–	–
CCOC1CC(C)N(C(=O)c2ccccc2)O1 (stereo not drawn)	> 100 µM	–	> 100	–	> 100	> 100 µM	> 100	–	–	–
COc1ccc(-c2c(C#N)c(S)n(NS(=O)(=O)c3ccccc3)c(=O)c2C#N)cc1	> 100 µM	> 100	> 100	> 100	> 100	> 100 µM	> 100	–	–	–
O=C(c1ccccc1)N1C(=S)N(c2ccccn2)C(=Nc2ccccc2)C1=Nc1ccccc1	> 100 µM	> 52.7	> 100	> 48.9	> 100	> 54.8 µM	> 73.8	–	–	–
COc1cc(OC)c2[nH]c3c(O)c(-c4c(C)cc5c([nH]c6c(OC)cc(OC)cc65)c4O)c(C)cc3c2c1	13.3 µM	–	15	14.6	15.5	21.9 µM	21.8	–	8.59 µM	10.2 µM
CCOC(=O)/C=C(/C)Nc1nc2c(c(C(=O)OC)c1C#N)CCCC2	> 100 µM	> 100	> 100	> 100	> 100	> 100 µM	> 100	–	–	–
c1ccc2c(c1)OC(N1CCCC1)c1cnc(N3CCOCC3)nc1-2 (stereo not drawn)	> 100 µM	> 100	> 100	> 100	> 100	> 100 µM	> 100	–	–	–
CC(=O)OC(C)(C)CCC(=O)[C@](C)(O)[C@H]1[C@H](O)C[C@@]2(C)[C@@H]3CCc4c(cc(OC5OC(CO)C(O)C(O)C5O)c(O)c4C)C3(C)C(=O)C[C@]12C (stereo partly drawn)	> 100 µM	> 100	> 100	> 100	> 100	> 100 µM	> 100	–	–	–
CC1(C)[C@@H]2C[C@H]1c1cnc(-c3ccccn3)cc1C2CCCCC[C@@H]1c2cc(-c3ccccn3)ncc2[C@@H]2C[C@H]1C2(C)C (stereo partly drawn)	> 36.7 µM	> 32.8	> 100	19.3	> 22.1	> 100 µM	7.33	–	–	–
COc1ccccc1C1c2cc3c(cc2OC(N2CCOCC2)C1C)OCO3 (stereo not drawn)	47.3 µM	–	51.4	35.2	38.7	48.7 µM	35.5	–	–	–
